Laboratory results from patent US20240409585A1, “MACROCYCLIC IMMUNOMODULATORS” (priority 2021, published 2024).
Numbered stars: 1 amine (or outer) side, 2 acyl side, 3 side chain; on linkers, the order of the positions; unused ones are H or OH. Bridge positions count the residues as written; N and C are the ends. Square brackets hold non-standard residues; d marks the D form. Peptide text beside a SMILES is read from it. * marks the point of attachment. ξ: configuration not given here. Ala(1H-tetrazol-5-yl) = N[C@@H](Cc1nnn[nH]1)C(=O)O; dPhe(3-CF3) = N[C@H](Cc1cccc(C(F)(F)F)c1)C(=O)O; Phe(4-COOH) = N[C@@H](Cc1ccc(C(=O)O)cc1)C(=O)O; X16 = O=C([C@H](Cc1ccc2cnccc2c1)N[*:1])[*:2]; Bip = N[C@@H](Cc1ccc(-c2ccccc2)cc1)C(=O)O; Phe(3-OMe) = COc1cccc(C[C@H](N)C(=O)O)c1; Phe(3-Me) = Cc1cccc(C[C@H](N)C(=O)O)c1; 1Nal = N[C@@H](Cc1cccc2ccccc12)C(=O)O; 4Pal = N[C@@H](Cc1ccncc1)C(=O)O; Cha = N[C@@H](CC1CCCCC1)C(=O)O; Cit = NC(=O)NCCC[C@H](N)C(=O)O; Ile(3ξ) = CCC(C)[C@H](N)C(=O)O; Thr(3ξ) = CC(O)[C@H](N)C(=O)O; Pen = CC(C)(S)[C@H](N)C(=O)O; Carboxymethyl = O=C(O)C*; NMeA = CN[C@@H](C)C(=O)O; Orn = NCCC[C@H](N)C(=O)O; Dab = NCC[C@H](N)C(=O)O; Dap = NC[C@H](N)C(=O)O; ξC = NC(CS)C(=O)O

molecular target: T1, PE-labeled human PD-L1-Ig binding to Jurkat cell line over-expressing human PD-1 (Jurkat-PD-1) (Homo sapiens, UniProt Q15116); assay: Jurkat-PD-1 Cell Binding High-Content Screening Assay (CBA): Method 1; conditions: Jurkat-hPD-1 cells, PE-labeled PD-L1-Ig 20 nM final; read-out: Jurkat HPDL1 PD1 IC50 (uM) (Method 1)
T1 construct: expressed in transfected cells; host or cells: Jurkat
T1 sequence (Q15116 25-288): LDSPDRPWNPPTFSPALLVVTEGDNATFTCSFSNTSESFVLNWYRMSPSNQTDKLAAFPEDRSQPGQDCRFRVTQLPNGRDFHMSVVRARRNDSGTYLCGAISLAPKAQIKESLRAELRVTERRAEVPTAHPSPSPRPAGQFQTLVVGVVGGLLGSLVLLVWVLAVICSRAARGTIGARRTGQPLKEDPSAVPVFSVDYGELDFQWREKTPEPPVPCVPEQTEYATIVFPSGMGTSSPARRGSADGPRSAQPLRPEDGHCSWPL

| Compound | IC50 |
| --- | --- |
| Cc1cccc(C[C@@H]2NC(=O)[C@H](CC(=O)O)NC(=O)[C@H](Cc3ccc(OCC(=O)O)cc3)NC(=O)[C@H](CC(N)=O)NC(=O)CSC[C@@H](C(N)=O)NC(=O)[C@H](CCC(=O)O)NC(=O)[C@H](C(C)C)NC(=O)[C@H](CC3CCCCC3)NC(=O)[C@H](CCN)NC(=O)[C@@H](CC(C)C)NC(=O)[C@H](C)N(C)C(=O)[C@H](Cc3ccc(OCC(=O)O)cc3)NC(=O)[C@H](Cc3ccc(-c4ccccc4)cc3)NC(=O)[C@H](Cc3ccc(OCC(=O)O)cc3)NC2=O)c1 [Compound 1667] ({CH2CO}-NY(Carboxymethyl)D[Phe(3-Me)]Y(Carboxymethyl)[Bip]Y(Carboxymethyl)[NMeA][dL][Dab][Cha]VEC-NH2; thioether N-14) | 0.11 µM |
| Cc1cccc(C[C@@H]2NC(=O)[C@H](CC(=O)O)NC(=O)[C@H](Cc3ccc(C(=O)O)cc3)NC(=O)[C@H](CN)NC(=O)CSC[C@@H](C(=O)N[C@@H](C)C(N)=O)NC(=O)[C@H]([C@@H](C)O)NC(=O)[C@H](C(C)C)NC(=O)[C@H](CC(C)C)NC(=O)[C@H](CCN)NC(=O)[C@@H](CC(C)C)NC(=O)[C@H](C)N(C)C(=O)[C@H](CCCNC(N)=O)NC(=O)[C@H](Cc3ccc(-c4ccccc4)cc3)NC(=O)[C@H](C(C)C)NC2=O)c1 [Compound 1429] ({CH2CO}-[Dap][Phe(4-COOH)]D[Phe(3-Me)]V[Bip][Cit][NMeA][dL][Dab]LVTCA-NH2; thioether N-14) | 0.01 µM |
| COc1cccc(C[C@@H]2NC(=O)[C@H](CC(=O)O)NC(=O)[C@H](Cc3ccc(O)cc3)NC(=O)[C@H](CC(N)=O)NC(=O)CSC[C@@H](C(=O)N[C@@H](C)C(N)=O)NC(=O)[C@H]([C@@H](C)O)NC(=O)[C@H](C(C)C)NC(=O)[C@H](CC(C)C)NC(=O)[C@H](CCN)NC(=O)[C@@H](CC(C)C)NC(=O)[C@H](C)N(C)C(=O)[C@H](CCCNC(N)=O)NC(=O)[C@H](Cc3ccc(-c4ccccc4)cc3)NC(=O)[C@H](C(C)C)NC2=O)c1 [Compound 1231] ({CH2CO}-NYD[Phe(3-OMe)]V[Bip][Cit][NMeA][dL][Dab]LVTCA-NH2; thioether N-14) | 0.04 µM |
| CCC(C)[C@@H]1NC(=O)[C@H](Cc2ccc(-c3ccccc3)cc2)NC(=O)[C@H](C(C)C)NC(=O)[C@H](Cc2c[nH]c3ccccc23)NC(=O)[C@H](CC(=O)O)NC(=O)[C@H](Cc2ccc(O)cc2)NC(=O)[C@H](CC(N)=O)NC(=O)CSCC(C(=O)NCC(=O)N[C@@H](CCN)C(=O)O)NC(=O)[C@H](C(C)O)NC(=O)[C@H](C(C)C)NC(=O)[C@H](CC2CCCCC2)NC(=O)[C@H](CC(N)=O)NC(=O)[C@@H](CC(C)C)NC(=O)[C@H](C)N(C)C1=O (stereo partly drawn) [Compound 2003] ({CH2CO}-NYDWV[Bip][Ile(3ξ)][NMeA][dL]N[Cha]V[Thr(3ξ)][ξC]G[Dab]-OH; thioether N-14) | 0.02 µM |
| CC(C)C[C@@H]1NC(=O)[C@H](Cc2c[nH]c3ccccc23)NC(=O)[C@H](Cc2nn[nH]n2)NC(=O)[C@H](Cc2ccc(O)cc2)NC(=O)[C@H](Cc2ccccc2)NC(=O)CSC[C@@H](C(=O)N[C@@H](C)C(N)=O)NC(=O)[C@H](CO)NC(=O)[C@H](C(C)C)NC(=O)[C@H](CC(C)C)NC(=O)[C@H](CC(N)=O)NC(=O)[C@@H](CC(C)C)NC(=O)[C@H](C)N(C)C(=O)[C@H](C(C)C)NC(=O)[C@H](Cc2ccc(-c3ccccc3)cc2)NC1=O [Compound 1541] ({CH2CO}-FY[Ala(1H-tetrazol-5-yl)]WL[Bip]V[NMeA][dL]NLVSCA-NH2; thioether N-14) | 0.02 µM |
| CCC(C)[C@@H]1NC(=O)[C@H](Cc2ccc(-c3ccccc3)cc2)NC(=O)[C@H](C(C)C)NC(=O)[C@H](Cc2c[nH]c3ccccc23)NC(=O)[C@H](CC(=O)O)NC(=O)[C@H](Cc2ccc(O)cc2)NC(=O)[C@H](Cc2ccncc2)NC(=O)CSC[C@@H](C(=O)N[C@@H](C)C(N)=O)NC(=O)[C@H](C(C)O)NC(=O)[C@H](CCN)NC(=O)[C@H](CC(C)C)NC(=O)[C@H](CC(N)=O)NC(=O)[C@@H](CC(C)C)NC(=O)[C@H](C)N(C)C1=O (stereo partly drawn) [Compound 2060] ({CH2CO}-[4Pal]YDWV[Bip][Ile(3ξ)][NMeA][dL]NL[Dab][Thr(3ξ)]CA-NH2; thioether N-14) | 0.28 µM |
| CC(C)C[C@@H]1NC(=O)[C@H](Cc2c[nH]c3ccccc23)NC(=O)[C@H](CC(=O)O)NC(=O)[C@H](Cc2ccc(OCC(=O)O)cc2)NC(=O)[C@H](Cc2ccc(OCC(=O)O)cc2)NC(=O)CSC(C)(C)[C@@H](C(N)=O)NC(=O)[C@H](CO)NC(=O)[C@H](C(C)C)NC(=O)[C@H](CC(C)C)NC(=O)[C@H](CCN)NC(=O)[C@@H](CC(C)C)NC(=O)[C@H](C)N(C)C(=O)[C@H](C(C)C)NC(=O)[C@H](Cc2ccc(-c3ccccc3)cc2)NC1=O [Compound 2260] ({CH2CO}-Y(Carboxymethyl)Y(Carboxymethyl)DWL[Bip]V[NMeA][dL][Dab]LVS[Pen]-NH2; thioether N-14) | 0.26 µM |
| CCC(C)[C@@H]1NC(=O)[C@H](Cc2ccc(-c3ccccc3)cc2)NC(=O)[C@H](C(C)C)NC(=O)[C@H](Cc2c[nH]c3ccccc23)NC(=O)[C@H](CC(=O)O)NC(=O)[C@H](Cc2ccc(O)cc2)NC(=O)[C@H](Cc2ccc3cnccc3c2)NC(=O)CSC[C@@H](C(=O)N[C@@H](C)C(N)=O)NC(=O)[C@H](C(C)O)NC(=O)[C@H](C(C)C)NC(=O)[C@H](CC2CCCCC2)NC(=O)[C@H](CCN)NC(=O)[C@@H](CC(C)C)NC(=O)[C@H](C)N(C)C1=O (stereo partly drawn) [Compound 2046] ({CH2CO}-[X16]YDWV[Bip][Ile(3ξ)][NMeA][dL][Dab][Cha]V[Thr(3ξ)]CA-NH2; thioether N-14) | 0.02 µM |

The remaining lines, values ahead:

| IC50 | Compound |
| --- | --- |
| 0.09 µM | CC(C)C[C@@H]1NC(=O)[C@H](Cc2c[nH]c3ccccc23)NC(=O)[C@H](CC(=O)O)NC(=O)[C@H](Cc2ccc(O)cc2)NC(=O)[C@H](Cc2ccccc2)NC(=O)CSC[C@@H](C(=O)NCC(N)=O)NC(=O)[C@H](CO)NC(=O)[C@H](C(C)C)NC(=O)[C@H](CC(C)C)NC(=O)[C@H](CC(N)=O)NC(=O)[C@@H](CCC(N)=O)NC(=O)[C@H](C)N(C)C(=O)[C@H](C(C)C)NC(=O)[C@H](Cc2ccc(-c3ccccc3)cc2)NC1=O [Compound 1784] ({CH2CO}-FYDWL[Bip]V[NMeA][dQ]NLVSCG-NH2; thioether N-14) |
| 0.23 µM | CC(C)C[C@@H]1NC(=O)[C@H](CCCNC(=N)N)NC(=O)[C@@H](CC(C)C)NC(=O)[C@H](C)N(C)C(=O)[C@H](CCCNC(=N)N)NC(=O)[C@H](Cc2ccc(-c3ccccc3)cc2)NC(=O)[C@H](C(C)C)NC(=O)[C@H](Cc2cccc3ccccc23)NC(=O)[C@H](CC(=O)O)NC(=O)[C@H](Cc2ccc(O)cc2)NC(=O)[C@H](CC(N)=O)NC(=O)CSC[C@@H](C(=O)N[C@@H](C)C(N)=O)NC(=O)[C@H]([C@@H](C)O)NC(=O)[C@H](C(C)C)NC1=O [Compound 1126] ({CH2CO}-NYD[1Nal]V[Bip]R[NMeA][dL]RLVTCA-NH2; thioether N-14) |
| 0.03 µM | CC(C)C[C@@H]1NC(=O)[C@H](CCCN)NC(=O)[C@@H](CC(C)C)NC(=O)[C@H](C)N(C)C(=O)[C@H](CCCNC(=N)N)NC(=O)[C@H](Cc2ccc(-c3ccccc3)cc2)NC(=O)[C@H](C(C)C)NC(=O)[C@H](Cc2c[nH]c3ccccc23)NC(=O)[C@H](CC(=O)O)NC(=O)[C@H](Cc2ccc(OCC(=O)O)cc2)NC(=O)[C@H](Cc2ccccc2)NC(=O)CSC[C@@H](C(=O)N[C@@H](C)C(N)=O)NC(=O)[C@H]([C@@H](C)O)NC(=O)[C@H](C(C)C)NC1=O [Compound 1140] ({CH2CO}-FY(Carboxymethyl)DWV[Bip]R[NMeA][dL][Orn]LVTCA-NH2; thioether N-14) |
| 0.55 µM | CC(C)C[C@@H]1NC(=O)[C@H](CCCNC(=N)N)NC(=O)[C@@H](Cc2cccc(C(F)(F)F)c2)NC(=O)[C@H](C)N(C)C(=O)[C@H](CCCNC(=N)N)NC(=O)[C@H](Cc2ccc(-c3ccccc3)cc2)NC(=O)[C@H](C(C)C)NC(=O)[C@H](Cc2c[nH]c3ccccc23)NC(=O)[C@H](CC(=O)O)NC(=O)[C@H](Cc2ccc(O)cc2)NC(=O)[C@H](Cc2ccccc2)NC(=O)CSC[C@@H](C(=O)N[C@@H](C)C(N)=O)NC(=O)[C@H]([C@@H](C)O)NC(=O)[C@H](C(C)C)NC1=O [Compound 1075] ({CH2CO}-FYDWV[Bip]R[NMeA][dPhe(3-CF3)]RLVTCA-NH2; thioether N-14) |
| 0.04 µM | CC(C)C[C@@H]1NC(=O)[C@H](CCCN)NC(=O)[C@@H](CC(C)C)NC(=O)[C@H](C)N(C)C(=O)[C@H](CCC(=O)O)NC(=O)[C@H](Cc2ccc(-c3ccccc3)cc2)NC(=O)[C@H](C(C)C)NC(=O)[C@H](Cc2c[nH]c3ccccc23)NC(=O)[C@H](CC(=O)O)NC(=O)[C@H](Cc2ccc(O)cc2)NC(=O)[C@H](CC(N)=O)NC(=O)CSC[C@@H](C(=O)N[C@@H](C)C(N)=O)NC(=O)[C@H](CO)NC(=O)[C@H](C(C)C)NC1=O [Compound 1240] ({CH2CO}-NYDWV[Bip]E[NMeA][dL][Orn]LVSCA-NH2; thioether N-14) |
| 0.02 µM | CC(C)C[C@@H]1NC(=O)[C@H](CC(N)=O)NC(=O)[C@@H](CC(C)C)NC(=O)[C@H](C)N(C)C(=O)[C@H](CCCNC(N)=O)NC(=O)[C@H](Cc2ccc(-c3ccccc3)cc2)NC(=O)[C@H](C(C)C)NC(=O)[C@H](Cc2c[nH]c3ccccc23)NC(=O)[C@H](CC(=O)O)NC(=O)[C@H](Cc2ccc(O)cc2)NC(=O)[C@H](Cc2ccccc2)NC(=O)CSC[C@@H](C(=O)N[C@@H](C)C(=O)N[C@@H](CCN)C(=O)O)NC(=O)[C@H](CO)NC(=O)[C@H](C(C)C)NC1=O [Compound 2000] ({CH2CO}-FYDWV[Bip][Cit][NMeA][dL]NLVSCA[Dab]-OH; thioether N-14) |
| 0.01 µM | CC(C)C[C@@H]1NC(=O)[C@H](CCN)NC(=O)[C@@H](CC(C)C)NC(=O)[C@H](C)N(C)C(=O)[C@H](CCCNC(N)=O)NC(=O)[C@H](Cc2ccc(-c3ccccc3)cc2)NC(=O)[C@H](C(C)C)NC(=O)[C@H](Cc2c[nH]c3ccccc23)NC(=O)[C@H](CC(=O)O)NC(=O)[C@H](Cc2ccc(C(=O)O)cc2)NC(=O)[C@H](Cc2ccncc2)NC(=O)CSC[C@@H](C(=O)N[C@@H](C)C(N)=O)NC(=O)[C@H]([C@@H](C)O)NC(=O)[C@H](C(C)C)NC1=O [Compound 1328] ({CH2CO}-[4Pal][Phe(4-COOH)]DWV[Bip][Cit][NMeA][dL][Dab]LVTCA-NH2; thioether N-14) |
